pEC50: −log10 of the molar value.
These compounds were tested on NL-RLuc virus (assay: Inhibition of HIV replication (NL-RLuc virus, luciferase readout in MT-2 cells)). Conditions: Human immunodeficiency virus 1, MT2, 120 h, MT-2 cells infected with NL-RLuc virus, 5 days of incubation, 10% FBS, at least 2 experiments.
Format: cell-based
Method in brief: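 MT-2 cells infected with NL4-3-derived virus carrying Renilla luciferase in place of part of nef, grown 5 days with serial compound dilutions in RPMI 1640/10% FBS. Virus growth read as luciferase expression. EC50 from median effect equation, at least 2 experiments.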

Structure (SMILES)	pEC50
Cc1ncc(-c2cnc(OC(C)CC(C)C)c(F)c2)c(N2CCC(C)(C)CC2)c1[C@H](OC(C)(C)C)C(=O)O (stereo partly drawn) [Example 384, (2S)-2-(tert-butoxy)-2-[4-(4,4-dimethylpiperidin-1-yl)-5′-fluoro-6-methyl-6′-[(4-methylpentan-2-yl)oxy]-[3,3′-bipyridine]-5-yl]acetic acid]	8.05
CC1(C)CCN(c2c(-c3ccc(OCCc4ccc(F)cc4)c(F)c3)c(CN3CCC4(CCC4)CC3)nc(Cl)c2[C@H](OC(C)(C)C)C(=O)O)CC1 [Example 210, (S)-2-(6-((7-Azaspiro[3.5]nonan-7-yl)methyl)-2-chloro-4-(4,4-dimethylpiperidin-1-yl)-5-(3-fluoro-4-(4-fluorophenethoxy)phenyl)pyridin-3-yl)-2-(tert-butoxy)acetic acid]	8.70
Cc1ncc(-c2cnc(OCCc3cc(F)cc(F)c3)c(F)c2)c(N2CCC(C)(C)CC2)c1[C@H](OC(C)(C)C)C(=O)O [Example 390, (2S)-2-(tert-butoxy)-2-{6′-[2-(3,5-difluorophenyl)ethoxy]-4-(4,4-dimethylpiperidin-1-yl)-5′-fluoro-6-methyl-[3,3′-bipyridine]-5-yl}acetic acid]	8.70
Cc1nc(NCCN2CCN(C)CC2)c(-c2ccc(OCCc3ccc(F)cc3)cc2)c(N2CCC(C)(C)CC2)c1[C@H](OC(C)(C)C)C(=O)O [Example 43, (S)-2-(tert-Butoxy)-2-(4-(4,4-dimethylpiperidin-1-yl)-5-(4-(4-fluorophenethoxy)phenyl)-2-methyl-6-((2-(4-methylpiperazin-1-yl)ethyl)amino)pyridin-3-yl)acetic acid]	9.22
Cc1nc(Nc2cccc(F)n2)c(-c2ccc(OCCc3ccc(F)cc3)cc2)c(N2CCC(C)(C)CC2)c1[C@H](OC(C)(C)C)C(=O)O [Example 89, (S)-2-(tert-Butoxy)-2-(4-(4,4-dimethylpiperidin-1-yl)-5-(4-(4-fluorophenethoxy)phenyl)-6-((6-fluoropyridin-2-yl)amino)-2-methylpyridin-3-yl)acetic acid]	7.89
Cc1nc(NC2CCOCC2)c(-c2ccc(OCCc3ccc(F)cc3)cc2)c(N2CCC(C)(C)CC2)c1[C@H](OC(C)(C)C)C(=O)O [Example 24, (S)-2-(tert-Butoxy)-2-(4-(4,4-dimethylpiperidin-1-yl)-5-(4-(4-fluorophenethoxy)phenyl)-2-methyl-6-((tetrahydro-2H-pyran-4-yl)amino)pyridin-3-yl)acetic acid]	8.70
Cc1nc(Nc2cc(F)ccn2)c(-c2ccc(OCCc3ccc(F)cc3)cc2)c(N2CCC(C)(C)CC2)c1[C@H](OC(C)(C)C)C(=O)O [Example 81, (S)-2-(tert-Butoxy)-2-(4-(4,4-dimethylpiperidin-1-yl)-5-(4-(4-fluorophenethoxy)phenyl)-6-((4-fluoropyridin-2-yl)amino)-2-methylpyridin-3-yl)acetic acid]	7.96
Cc1ncc(-c2ccc(O[C@H](C)C(C)C)cn2)c(N2CCC(C)(C)CC2)c1[C@H](OC(C)(C)C)C(=O)O [Example 319, (2S)-2-(tert-butoxy)-2-[4′-(4,4-dimethylpiperidin-1-yl)-6′-methyl-5-{[(2R)-3-methylbutan-2-yl]oxy}-[2,3′-bipyridine]-5′-yl]acetic acid]	8.15
Cc1nn(C)cc1-c1nc(C)c([C@H](OC(C)(C)C)C(=O)O)c(N2CCC(C)(C)CC2)c1-c1ccc(OCCc2ccc(F)cc2)cc1 [Example 37, (S)-2-(tert-Butoxy)-2-(6-(1,3-dimethyl-1H-pyrazol-4-yl)-4-(4,4-dimethylpiperidin-1-yl)-5-(4-(4-fluorophenethoxy)phenyl)-2-methylpyridin-3-yl)acetic acid]	8.70
Cc1nc(-c2cnn(C3CC3)c2)c(-c2ccc(OCCc3ccc(F)cc3)cc2)c(N2CCC(C)(C)CC2)c1[C@H](OC(C)(C)C)C(=O)O [Example 47, (S)-2-(tert-Butoxy)-2-(6-(1-cyclopropyl-H-pyrazol-4-yl)-4-(4,4-dimethylpiperidin-1-yl)-5-(4-(4-fluorophenethoxy)phenyl)-2-methylpyridin-3-yl)acetic acid]	8.40

Source: patent publication US20200055839A1 (priority 2017, published 2020)
